These results are taken from US9700058B2, “Dispersion and detachment of cell aggregates” (priority 2011, dated 2017).

Type in all cases: cell-based
Test [1] deals with Pseudomonas aeruginosa. Kind of test: Enhancement of antibiotic activity on 24-h biofilm, live bacteria by plating. The protocol:
(§1) The ability of grZ14s-nvCyc to enhance the activity of Imipenem or Ampicillin was performed by first incubating the wells in a 96-well plate with Pseudomonas aeruginosa for 24 hours at 37° C. and 50 rpm shaking. The plate was washed 2 times with phosphate buffer solution. The wells were then filled with either the antibiotic alone or the antibiotic with grZ14s-nvCyc (100 ng/ml). The wells were then incubated for 48 hours (24 hours for Ampicillin) at 37° C. and 50 rpm shaking. 0.3% triton X-100 and 0.45% EDTA were then added to the wells, bringing the wells to a final concentration of 0.075% triton X-100 and 0.1125% EDTA. The plates were then sonicated in a bath-sonicator for 12 minutes. The wells were then serially diluted in PBS. The solutions were then seeded on a blood plate agar and incubated at 37° C. for 24 hours.

In a further test the test system is Staphylococcus aureus. Kind of test: Enhancement of Vancomycin activity on 24-h biofilm, live bacteria by plating. The conditions noted are these: peptide 100 ng/ml with Vancomycin vs Vancomycin alone. The protocol:
as §1, with “Vancomycin” for “Imipenem or Ampicillin”, “Staphylococcus aureus” for “Pseudomonas aeruginosa”, “24” for “48”, “hours” for “hours (24 hours for Ampicillin)”

For another test, the system named is Candida albicans. Kind of test: Enhancement of antifungal activity, BacTiter-Glo viability. The conditions noted are these: 24 hours. The protocol:
(§2) The ability of grZ14s-nvCyc to enhance the activity of Amphotericin was performed by first incubating the wells in a 96-well plate with Candida albicans for 24 hours at 37° C. and 50 rpm shaking. The plate was washed 2 times with phosphate buffer solution. The wells were then filled with either the antifungal alone or the antifungal with grZ14s-nvCyc (100 ng/ml). The wells were then incubated for 24 hours at 37° C. and 50 rpm shaking. The plates were again washed 2 times with PBS. BacTiter-Glo Microbial Cell Viability Assay (Promega, USA) was used following the manufacturer protocol and luminescence read.
as §2, with “Fluconazole” for “Amphotericin”

The subject of test [2] is Pseudomonas aeruginosa. Kind of test: Enhancement of Kanamycin activity, BacTiter-Glo viability. As to conditions: peptide 100 ng/ml with Kanamycin vs Kanamycin alone, 24 hours. The protocol:
as §2, with “Kanamycin” for “Amphotericin”, “Pseudomonas aeruginosa” for “Candida albicans”, “Kanamycin” for “the antifungal”

The test system of test [3] is Pseudomonas aeruginosa (ATCC 27853). Kind of test: Detachment of pre-formed biofilm from a well (Examples 1-7). As to conditions: 24-hour peptide incubation, different concentrations, crystal violet OD 595 nm. The protocol: A biofilm was created by incubating Pseudomonas aeruginosa (ATCC 27853) overnight in wells at 37° C., allowing the microorganism to attach to the well surface. Eqt2Z-cyc peptide [Custom Peptide Synthesis; Peptron, Korea] at different concentrations was subsequently added to the wells and allowed to incubate overnight. The P.a. control was Pseudomonas aeruginosa alone.
A biofilm was created by culturing Pseudomonas aeruginosa (ATCC 27853) for 2 hours in a well at 37° C. Eqt2Z-cyc peptide at different concentrations was subsequently added to the well and allowed to incubate overnight. The Abac10-cyc peptide served as a negative control. The P.a. control was Pseudomonas aeruginosa alone.
A biofilm was created by culturing Pseudomonas aeruginosa (ATCC 27853) for 2 hours in a well at 37° C. Eqt2Z-cyc peptide at different concentrations was subsequently added to the well and allowed to incubate for 24 hours. The Abac10-cyc peptide served as a negative control. The P.a. control was Pseudomonas aeruginosa alone. […] Staining was performed with crystal violet at OD 595 nm.
A biofilm was created by culturing Pseudomonas aeruginosa (ATCC 27853) for 2 hours in a well at 37° C. grZ14s-nvCyc peptide [Custom Peptide Synthesis; Peptron, Korea] at different concentrations was subsequently added to the well and allowed to incubate for 24 hours. The Abac10-cyc peptide served as a negative control. The P.a. control was Pseudomonas aeruginosa alone. […] Staining was performed with crystal violet at OD 595 nm.
A biofilm was created by culturing Pseudomonas aeruginosa (ATCC 27853) for 24 hours in a well at 37° C. Eqt2Z-cyc peptide at different concentrations was subsequently added to the well and allowed to incubate for 24 hours. The Abac10-cyc peptide served as a negative control. The P.a. control was Pseudomonas aeruginosa alone. […] Staining was performed with crystal violet at OD 595 nm.
A biofilm was created by culturing Pseudomonas aeruginosa (ATCC 27853) for 24 hours in a well at 37° C. grZ14s-nvCyc peptide at different concentrations was subsequently added to the well and allowed to incubate for 24 hours. The Abac10-cyc peptide served as a negative control. The P.a. control was Pseudomonas aeruginosa alone. […] Staining was performed with crystal violet at OD 595 nm.
A biofilm was created by culturing Pseudomonas aeruginosa (ATCC 27853) for 24 hours in a well at 37° C. PhyscoZ-Cyc peptide [Custom Peptide Synthesis; Peptron, Korea] at different concentrations was subsequently added to the well and allowed to incubate for 24 hours. The P.a. control was Pseudomonas aeruginosa alone. […] Staining was performed with crystal violet at OD 595 nm.

With CSVHSFDYDWYNVC [grZ14s-nvCyc], the “number of live bacteria” value in the test with Pseudomonas aeruginosa [1] (peptide 100 ng/ml with Ampicillin vs Ampicillin alone, 24 hours) was “much lower”; in the test on Pseudomonas aeruginosa [1] (peptide 100 ng/ml with Imipenem vs Imipenem alone, 48 hours) it was “much lower”; in the test on Staphylococcus aureus, “much lower”; with Pseudomonas aeruginosa [2], “much lower”. Also, the “number of live fungus” value in the test on Candida albicans (peptide 100 ng/ml with Amphotericin vs Amphotericin alone) and in the test on Candida albicans (peptide 100 ng/ml with Fluconazole vs Fluconazole alone) was “much lower” in each case. For the same sequence, the microorganism detachment result in test [3] (2-hour biofilm) and in test [3] (24-hour biofilm) was “far greater microorganism detachment than in the P.a. control or negative control” each time.
